Values quoted from earlier work as cited in article PMC8894159, “Paltusotine, a novel oral once-daily nonpeptide SST2 receptor agonist, suppresses GH and IGF-1 in healthy volunteers” (Pituitary, 2022).

How the values were obtained:
IGF-1 = test system: IGF-1; set-up: method as in PMID 25664604; conditions: twice-daily oral preparation; patients previously controlled on depot preparations; cited from earlier work
[1] = set-up: method as in PMID 25260838; conditions: patients taking pasireotide; cited from earlier work

Row | Substance | patients maintaining IGF-1 control (IGF-1) [%] | patients with hyperglycemia/diabetes [1]
1 | octreotide | 58 | 
2 | pasireotide |  | approximately 57%
